Laboratory results reported in patent US7517646B2, “Functional molecule and process for producing the same” (Fujitsu Limited, priority 2002, dated 2009).

Molecular target: human albumin (Homo sapiens, UniProt P02768)
Assay: affinity column filled with beads bound with human albumin; binding of the selected functional molecule
Conditions: functional molecule selected from the random polymer pool N20-M20-N20 on a human albumin affinity column
Method: First, an affinity column, which was filled with beads bound with human albumin as the target, was prepared and a solution containing the random polymer pool was passed through this column to leave at a specific condition and, then, the modified oligonucleotide sequence showing the affinity to the target adsorbed to the column (FIG. 3B). Subsequently, remained components other than the remained oligonucleotide sequence were removed by washing sufficiently with a buffer solution and the solution containing human albumin was passed through the column to select and collect the oligonucleotide containing the modified oligonucleotide random sequence (FIG. 3C). The step described above is the selecting step.
This selected modified oligonucleotide sequence was amplified by PCR followed by cloning to know the base sequence of the DNA. As the result, a portion of the base sequence of the determined modified oligonucleotide was “ATGCTCTAGCCCCT” (SEQ ID NO: 1) (FIG. 3D). The step described above is the determining step.
Translating this base sequence on the basis of the relation table presented “AU1GC6U4CU3AGC6C3CC5T” resulting in identification of a structure of the functional molecule (FIG. 3D). The step described above is the translating step.

Chain of human albumin (P02768 25-609): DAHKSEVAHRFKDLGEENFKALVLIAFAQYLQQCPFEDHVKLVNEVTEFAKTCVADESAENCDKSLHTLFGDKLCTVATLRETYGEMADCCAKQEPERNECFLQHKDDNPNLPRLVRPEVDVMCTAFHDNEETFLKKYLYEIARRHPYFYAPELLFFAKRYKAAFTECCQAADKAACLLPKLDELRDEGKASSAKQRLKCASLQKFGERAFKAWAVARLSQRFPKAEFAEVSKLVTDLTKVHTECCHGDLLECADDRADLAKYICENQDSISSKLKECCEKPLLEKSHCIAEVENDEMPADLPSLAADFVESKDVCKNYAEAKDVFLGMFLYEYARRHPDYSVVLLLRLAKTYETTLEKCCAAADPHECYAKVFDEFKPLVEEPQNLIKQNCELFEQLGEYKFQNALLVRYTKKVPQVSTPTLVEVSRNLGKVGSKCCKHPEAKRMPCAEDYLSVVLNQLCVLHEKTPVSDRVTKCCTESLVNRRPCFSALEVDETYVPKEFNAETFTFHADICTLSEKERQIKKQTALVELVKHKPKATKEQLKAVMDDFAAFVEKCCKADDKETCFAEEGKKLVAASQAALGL

Substance: AU1GC6U4CU3AGC6C3CC5T (AUGCUCUAGCCCCT; modified nucleotides, further chemistry not given here) [functional molecule]
- binding to human albumin: bound specifically with human albumin
